In assay [1] the test system is collagen-induced arthritis mouse model. Kind of assay: Collagen-induced arthritis (CIA) mouse model: in-life disease score, paw thickness. In kind it is in vivo, mouse (DBA/1J). Particulars: for change in group average disease score - mean, Day versus Day 21 (start of treatment): 60 mg/kg PO BID from D21.
In assay [2] the test system is TLR4 signaling in primary human umbilical vein endothelial cells. Put plainly: Cytokine response to TLR4 agonism (LPS) in primary HUVEC (ELISA). The assay is classed as cell-based. As for the experimental part:
(§1) In this example, the following commercially available inhibitors were tested:
(§2) The results were compared with test compound 61.
(§3) Pooled primary human umbilical vein endothelial cells (HUVEC) were obtained from Lonza (Allendale, N.J.) and maintained in either complete EGM-2 defined media (Lonza) or Medium 200 supplemented with Low Serum Growth Supplement (Life Technologies, Grand Island, N.Y.). Cells at low passage (<5) were seeded at 4e5 cells/ml and allowed to adhere overnight at 37° C. in a humidified atmosphere at 5% CO2. Cells were pre-treated with test compounds for 1 h prior to TLR2 or TLR4 stimulation. To test for the effects of TLR2 agonism, the TLR2 agonist peptide Pam3CysK4 (Santa Cruz Biotechnology, Dallas, Tex.) was used at 10 μg/ml. PHC-SKKK (Enzo Life Sciences, Farmingdale, N.Y.) served as the negative control peptide. To test for the effects of TLR4 agonism, LPS from E. coli 0111:B4 (EMD Millipore, Billerica, Mass.) was used at 100 ng/ml. Cells were incubated for 22 hr, after which the supernatant was collected and analyzed for cytokine concentrations by ELISA (Life Technologies). Absorbance at 450 nm was read using the Wallac 1420 Victor^2 multilabel microplate reader (Perkin Elmer, Waltham, Mass.).

The test system of assay [3] is human fetal lung fibroblasts (HFL-1). Kind of assay: TGF-β-induced fibrotic response (α-SMA expression) in HFL-1. The assay is classed as cell-based. Particulars: HFL1, 2 ng/ml TGF-β1, 48 h, Western blot, read-out: Inhibition of α-SMA expression, EC50 (μM), HFL-1. As for the experimental part:
Nontransformed, human fetal lung fibroblasts (HFL-1) were obtained from ATCC (Manassas, Va.) and maintained in F12K media containing 10% (v/v) charcoal-dextran treated, heat inactivated FBS (Omega Scientific, Tarzana, Calif.). Primary lung fibroblasts isolated from a patient diagnosed with asthma were obtained from Lonza (Allendale, N.J.) and maintained in FGM-2 fibroblast growth medium (Lonza). Cells were seeded at a density to provide 50-60% confluence after an overnight incubation at 37° C. in a humidified atmosphere at 5% CO2. […] Protein content was determined using the Bio-Rad Dc Protein kit (Bio-Rad Laboratories, Hercules, Calif.), and normalized prior to adding an equal volume of 2× Laemmli sample buffer (Sigma). Proteins in the whole cell lysates were resolved via SDS-PAGE gel electrophoresis, and α-SMA was detected via Western blot analysis using a rabbit anti-human α-SMA polyclonal antibody (Abcam, Cambridge, Mass.). α-SMA signal was normalized to the signal of β-actin as detected using mouse anti-human […] antibody (Cell Signaling Technology). DyLight 680 and 800 conjugated secondary antibodies were used and the infrared signals were detected using the Odyssey Imaging System (LI-COR Biotechnology, Lincoln, Nebr.).

The subject of assay [4] is TLR2 signaling in primary human umbilical vein endothelial cells. Put plainly: Cytokine response to TLR2 agonism (Pam3CysK4) in primary HUVEC (ELISA). Particulars: for IL-8: 5 μM inhibitor. In kind it is cell-based.
Excerpt: It has been reported in the literature that that ERK5 mediates TLR2-dependent inflammatory signaling in several cell types including human umbilical vein endothelial cells (HUVEC). See Wilhelmsen et al., J Biol Chem. 2012; 287:26478-94. Wilhelmsen et al. further reported that MEK1 negatively regulates TLR2 signaling in HUVECs, with pharmacological inhibition of MEK1 augmenting (IL-6, G-CSF, GM-CSF) or not changing (IL-8) pro-inflammatory cytokine release in response to TLR2 stimulation.
as §1, §2, §3

The text below walks through data of patent publication US20170008888A1 (KYORIN PHARMACEUTICAL CO., LTD., priority 2014, published 2017).

Structures are written as SMILES.

In the case of `CCOc1cc(C(=O)N2CCC(N3CCCC3)CC2)ccc1Nc1cc2c(cn1)N(C)C(=O)c1ccccc1N2C` [Compound 46, 3-(2-Ethoxy-4-(4-(pyrrolidin-1-yl)piperidine-1-carbonyl)phenylamino)-5,11-dimethyl-5H-benzo[e]pyrido[3,4-b][1,4]diazepin-10(11H)-one], the “change in group average disease score - mean, Day versus Day 21 (start of treatment)” value was determined as 0.0 in assay [1] (Day 21); 0.4 in assay [1] (Day 24); 1.3 in assay [1] (Day 26); 2.0 in assay [1] (Day 28); 2.1 in assay [1] (Day 31); 2.7 in assay [1] (Day 33). For the same molecule, the entries for the “change in group average disease score - mean, Day versus Day 21 (start of treatment)” value in assay [1] (Day 35), in assay [1] (Day 37) and in assay [1] (Day 39) were 2.4, 2.7 and 2.8, respectively. In addition, in assay [1] (treatment Day 21-42, Tofacitinib 15 mg/kg BID PO, doses in Table 28), the “percent reduction in overall disease and total paw scores” value was “about 55%”.
With `CCOc1cc(C(=O)N2CCC(N3CCN(C)CC3)CC2)ccc1Nc1cc2c(cn1)N(C)C(=O)c1ccccc1N2C` [Compound 61], the “G-CSF” value in assay [2] (5 μM inhibitor, +100 ng/ml LPS) came out at 14 ± 5 pg/mL; in assay [2] (5 μM inhibitor, No Stimulation), 0 ± 25 pg/mL. Besides, the “IL-6” value was 113 ± 14 pg/mL in assay [2] (5 μM inhibitor, +100 ng/ml LPS) and 7 ± 1 pg/mL in assay [2] (5 μM inhibitor, No Stimulation). Besides, the “IL-8” value in assay [2] (5 μM inhibitor, +100 ng/ml LPS, 22 hr) is 1105 ± 25 pg/mL; in assay [4] (+10 μg/ml PHC-SKKK (negative control peptide), 22 hr), 0 ± 17 pg/mL; in assay [4] (+10 μg/ml Pam3CysK4, 22 hr), 133 ± 9 pg/mL. Also, the “G-CSF response to TLR4 agonism, in words” value in assay [2] (summary of Table 23) is reported as “reduced the G-CSF response”. In assay [2] (summary of Table 24), the “IL-6 response, in words” value is “reduced”. For the same molecule, the EC50 in assay [3] lay within 0.75 to 2.3 µM. Moreover, the “IL-8 response to TLR2 (Pam3CysK4) stimulation, in words” value in assay [4] (summary of Table 22) is listed as “reduced the IL-8 response”.
